Here are results for one compound from patent publication US20240366571A1, “MODULATORS OF SK4 POTASSIUM CHANNEL AND USES THEREOF” (Ramot at Tel-Aviv University Ltd., priority 2022, published 2024).

One experiment has as its target T1, WT SK4 channels (Homo sapiens, UniProt O15554).
T1 construct: expressed in transfected cells; host or cells: CHO cells
Put plainly: Inside-out macro-patch recording of WT SK4 channels in transfected CHO cells. Format: cell-based. The method, then: Inside-out macro-patch recording: To measure the Ca^2+ concentration dependence for SK4 channel activation, CHO cells were co-transfected with plasmids encoding WT SK4 (1 μg) and WT CaM (1 μg) using the Lipofectamine reagent at a ratio of 1:2. The cells were transfected 48 hours prior to recordings. The patch pipettes were pulled and fire-polished with a MF-900 micro-forge (Narashige) to reach an internal diameter of […]. The resistance of the patch electrodes ranged from 2-3 MΩ. The pipette solution contained 135 mM KCl, 1 mM MgSO4, 0.91 mM CaCl2, and 10 mM HEPES at pH 7.3. The bath solution contained 135 mM KCl, 5 mM EGTA, and 10 mM HEPES at pH 7.3. EGTA was used to titer the different Ca^2+ concentration solutions, calculated using the software by C. Patton of Stanford University (http://maxchelator(dot)stanford(dot)edu/). Currents were recorded by 10 repetitive 1 second duration voltage ramps from −100 mV to +100 mV from a holding potential of 0 mV. The current amplitudes in response to increasing Ca^2+ concentrations were normalized to those obtained at a saturating Ca^2+ concentration (3 μM). Furthermore, to determine the Ca^2+ concentration dependence for activation in the presence of a tested compound, such as the exemplary compound BA6b9 (10 μM), the current amplitudes were normalized to those obtained at large maximal Ca^2+ concentration of 10 μM. For PIP2-dependent activation, PIP2 affinity to the SK4 channel was also examined in the inside-out configuration. The dose-response curve for PIP2 was measured with increasing concentrations of diC8-PIP2 in the presence of 1 μM Ca^2+. The diC8-PIP2 effect on the channel current was measured after complete depletion of the native PIP2 using sonicated poly-L-lysine (PLL) 50 μg/ml and a subsequent 2-minute washout. […] Apparent EC50 values for Ca^2+ or diC8-PIP2 were determined by fitting the data points to a standard dose-response curve Y=100/(1+10^(log EC(50)−X)*HillSlope).
The calcium dependence of the human SK4 K^+ channel in transfected CHO cells was characterized using inside-out macro-patches. The expressed currents were recorded in response to voltage ramps (−100 millivolt (mV) to +100 mV for 1 seconds) and by increasing the free-Ca^2+ concentrations applied to the internal face of the membrane. […]
To examine whether PIP2 is involved in the modulation of the SK4 channel, channel trafficking to the plasma membrane was increased by co-transfecting CHO cells with plasmid DNAs encoding for the channel and for wild type (WT) CaM. The resulting currents were recorded from inside-out macro-patches, where the intracellular solution contained a saturating concentration of 1 μM free-Ca^2+, as shown in FIG. 1B (see, black plot).

A further experiment addresses T2, human SK4 (Homo sapiens, UniProt O15554).
T2 construct: expressed in transfected cells; host or cells: CHO cells
Briefly: Whole-cell patch-clamp of WT SK4 K+ currents in transfected CHO cells. It is filed as cell-based. The method, then:
Constructs: For CHO cell transfection, the following were cloned: human SK1, rat SK2, human SK3, and rat calmodulin into the pcDNA3 vector, human SK4 into pEGFP-C1 vector, and PIP4,5-kinase into an IRES-dsRed plasmid. The mutations were introduced using the PCR-based QuikChange™ site-directed mutagenesis (Stratagene®) and were verified by full sequencing of the entire plasmid vector.
Cell Culture and Transfection: Chinese hamster ovary (CHO) cells were grown in Dulbecco's modified Eagle's medium supplemented with 2 millimolar (mM) glutamine, 10% fetal calf serum, and antibiotics. In brief, 40,000 cells seeded on poly-L-lysine-coated glass coverslips (13 millimeter (mm) in diameter) in a 24-multiwell plate were transfected with 0.5 microgram (μg) pEGFP-SK4/0.5 μg mutant SK4, 1.2 μg dsRed-PIP4,5-kinase or with 1 μg SK1/SK2/SK3 together with pIRES-CD8 (0.3 μg) as a marker for transfection. Transfection was performed using TransIT-LT1 Transfection Reagent (Mirus Bio) according to the manufacturer's protocol. For electrophysiology, transfected cells were visualized approximately 40 hours after transfection with a Zeiss Axiovert 35 inverted florescence microscope.
Whole-cell patch-clamp recording: Voltage-clamp recordings were performed using the whole-cell configuration of the patch-clamp technique. Signals were amplified using an […] patch-clamp amplifier (Molecular Devices), sampled at 5 kHz and filtered at 2.4 kHz via a four pole Bessel low pass filter. Data were acquired using pClamp™ 10.5 software in conjunction with an Axon™ DigiData® 1440A interface (Molecular Devices). The patch pipettes were pulled from borosilicate glass (Harvard Apparatus) with a resistance of 3-5 megaohms (MΩ). The intracellular pipette solution contained 130 mM KCl, 5 mM EGTA, 10 mM HEPES, pH 7.3 (adjusted with KOH), and CaCl2 calculated for a final concentration of 1 μM free-Ca^2+, by MAXCHELATOR (WEBMAXC STANDARD) software, with sucrose added to adjust osmolarity to 290 mosM. The external solution (310 mosM) contained 140 mM NaCl, 4 mM KCl, 1.8 mM CaCl2, 1.2 mM MgCl2, 11 mM glucose, and 5.5 mM HEPES adjusted with NaOH to pH 7.3. CHO cells were held at −90 millivolt (mV) and SK4 K^+ currents were activated using a voltage ramp protocol from −100 mV to +60 mV for 150 milliseconds. Electrophysiological data analysis was performed using the Clampfit program (pClamp™ 10.5; Molecular Devices).
Some of the compounds were tested by comparing trace of WT SK4 channel currents in the absence and presence of 20 μM of the tested compound.
(In general: The patch-clamp technique gives a direct electrical read-out from membranes.)

Structures are written as SMILES. “Also recorded” adds a separate entry of the source.

Regarding `CCCCCCCn1c(=O)oc2ccccc21` [BA6b9, 3-heptylbenzo[d]oxazol-2(3H)-one], the “lowering of the sensitivity of SK4 channels to Ca2+” value at WT SK4 channels (10 μM compound) is listed as “about 7 fold”. Further, the inhibition (usually how much of the control response was suppressed) at 10 µM on WT SK4 channels (CHO, 10 μM, 1 μM free-Ca2+, read-out: inhibition of SK4 currents in inside-out macro-patches) worked out at 66%. Besides, the inhibition at 20 µM at human SK4 (CHO, 20 μM, whole-cell) was 56%. Further, the “SK4 K+ channel modulating activity” value on human SK4 (WT SK4 currents in absence and presence of 20 μM compound) is on record as “inhibited; also recorded: Inhibitor”.
